Measured values taken from the NIST ThermoML archive (doi:10.1016/j.jct.2014.07.023).
Numbers after ± are expanded uncertainties.

Assay: molar heat capacity at constant pressure; xn = mol fraction of the nth substance listed
Details: 100 kPa, Liquid, Small sample (50 mg) DSC

CCC(O)CO (stereo not drawn) [1,2-butanediol] + CO
molar heat capacity at constant pressure [J/K/mol]
Details	293.15 K	298.15 K	303.15 K	308.15 K	313.15 K	318.15 K	323.15 K
x1 = 0.0476	87.09 ± 3.7	88.16 ± 3.7	89.28 ± 3.8	90.46 ± 3.8	91.68 ± 3.9	92.97 ± 3.9	94.33 ± 4
x1 = 0.2098	110.52 ± 4.7	111.89 ± 4.7	113.35 ± 4.8	114.81 ± 4.9	116.36 ± 5	117.95 ± 5	119.55 ± 5.1
x1 = 0.2964	123.04 ± 5.2	124.67 ± 5.3	126.29 ± 5.4	127.97 ± 5.4	129.69 ± 5.5	131.42 ± 5.6	133.19 ± 5.7
x1 = 0.3913	137.52 ± 5.9	139.33 ± 5.9	141.14 ± 6	143 ± 6.1	144.86 ± 6.1	146.72 ± 6.2	148.64 ± 6.3
x1 = 0.4706	148.79 ± 6.3	150.69 ± 6.4	152.65 ± 6.5	154.55 ± 6.5	156.51 ± 6.6	158.53 ± 6.7	160.49 ± 6.8
x1 = 0.6016	168.53 ± 7.2	170.74 ± 7.2	172.88 ± 7.4	175.02 ± 7.4	177.24 ± 7.5	179.38 ± 7.6	181.52 ± 7.7
x1 = 0.6991	182.48 ± 7.8	184.81 ± 7.8	187.13 ± 7.9	189.46 ± 8.1	191.71 ± 8.1	194.03 ± 8.2	196.36 ± 8.4
x1 = 0.8042	198.84 ± 8.4	201.2 ± 8.5	203.65 ± 8.7	206.01 ± 8.7	208.45 ± 8.8	210.81 ± 9	213.25 ± 9.1
x1 = 0.8917	211.25 ± 9	213.85 ± 9.1	216.37 ± 9.2	218.97 ± 9.3	221.48 ± 9.4	224 ± 9.5	226.43 ± 9.6
x1 = 0.9224	216.09 ± 9.2	218.66 ± 9.2	221.31 ± 9.4	223.88 ± 9.5	226.45 ± 9.6	229.02 ± 9.7	231.59 ± 9.8
x1 = 0.9627	222 ± 9.4	224.64 ± 9.5	227.27 ± 9.7	229.91 ± 9.8	232.46 ± 9.9	235.01 ± 9.9	237.65 ± 10
x1 = 1	228.1 ± 9.6	230.8 ± 9.8	233.5 ± 9.9	236.21 ± 10	238.91 ± 10	241.52 ± 10	244.23 ± 10

OCCCCO [1,4-butanediol] + CO
molar heat capacity at constant pressure [J/K/mol]
Details	293.15 K	298.15 K	303.15 K	308.15 K	313.15 K	318.15 K	323.15 K
x1 = 0.1009	92.1 ± 3.9	93.2 ± 3.9	94.34 ± 4	95.55 ± 4.1	96.84 ± 4.1	98.2 ± 4.2	99.61 ± 4.2
x1 = 0.1972	103.34 ± 4.4	104.65 ± 4.4	106 ± 4.5	107.43 ± 4.6	108.87 ± 4.6	110.35 ± 4.7	111.91 ± 4.7
x1 = 0.2955	114.99 ± 4.9	116.42 ± 4.9	117.94 ± 5	119.47 ± 5.1	121.14 ± 5.1	122.81 ± 5.2	124.59 ± 5.3
x1 = 0.4144	129.16 ± 5.5	130.79 ± 5.6	132.48 ± 5.6	134.21 ± 5.7	136.07 ± 5.8	137.97 ± 5.8	139.99 ± 5.9
x1 = 0.5093	140.68 ± 6	142.41 ± 6	144.26 ± 6.1	146.17 ± 6.2	148.2 ± 6.3	150.29 ± 6.3	152.45 ± 6.5
x1 = 0.624	154.46 ± 6.6	156.51 ± 6.6	158.55 ± 6.8	160.74 ± 6.8	162.92 ± 6.9	165.25 ± 7	167.5 ± 7.1
x1 = 0.6996	163.59 ± 7	165.7 ± 7	167.88 ± 7.1	170.13 ± 7.2	172.46 ± 7.3	174.93 ± 7.4	177.4 ± 7.6
x1 = 0.8004	175.9 ± 7.5	178.18 ± 7.5	180.54 ± 7.7	182.97 ± 7.8	185.48 ± 7.9	188.08 ± 8	190.75 ± 8.1
x1 = 0.8591	183.21 ± 7.8	185.59 ± 7.9	188.05 ± 7.9	190.59 ± 8.1	193.21 ± 8.2	195.91 ± 8.3	198.7 ± 8.4
x1 = 0.9043	188.15 ± 7.9	190.69 ± 8.1	193.23 ± 8.2	195.85 ± 8.3	198.55 ± 8.5	201.34 ± 8.5	204.22 ± 8.6
x1 = 0.9565	194.9 ± 8.2	197.44 ± 8.4	200.07 ± 8.5	202.87 ± 8.6	205.67 ± 8.8	208.56 ± 8.8	211.63 ± 9
x1 = 1	201.15 ± 8.6	203.76 ± 8.7	206.56 ± 8.7	209.44 ± 8.9	212.33 ± 9	215.39 ± 9.1	218.54 ± 9.3
